Test results: US7799796B2, “Diaminopyrimidines as P2X3 and P2X2/3 modulators” (Roche Palo Alto LLC, priority 2005, dated 2010)

Experiments:
[1] = target: T1, rat P2X3 receptor (Rattus norvegicus, UniProt P49654); test: P2X3 FLIPR (Fluorometric Imaging Plate Reader) assay; type: cell-based; settings: CHO-K1 cells transfected with rat P2X3; agonist α,β-meATP 1 μM; read-out: pIC50 for the P2X3 receptor (converted)
T1 construct: expressed in transfected cells; host or cells: CHO-K1
T1 sequence (P49654 1-397): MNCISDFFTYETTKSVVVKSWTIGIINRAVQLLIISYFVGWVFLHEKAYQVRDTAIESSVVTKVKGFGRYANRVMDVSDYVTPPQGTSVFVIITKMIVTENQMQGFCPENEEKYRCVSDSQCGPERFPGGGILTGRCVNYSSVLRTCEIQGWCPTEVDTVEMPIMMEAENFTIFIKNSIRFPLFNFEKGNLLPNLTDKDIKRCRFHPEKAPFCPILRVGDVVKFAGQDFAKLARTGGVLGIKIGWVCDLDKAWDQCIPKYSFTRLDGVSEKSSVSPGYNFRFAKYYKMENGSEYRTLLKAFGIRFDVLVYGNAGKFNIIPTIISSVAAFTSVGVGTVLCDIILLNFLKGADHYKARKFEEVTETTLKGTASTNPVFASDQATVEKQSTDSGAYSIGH
Method: (§1) CHO-K1 cells were transfected with cloned rat P2X3 or human P2X2/3 receptor subunits and passaged in flasks. 18-24 hours before the FLIPR experiment, cells were released from their flasks, centrifuged, and resuspended in nutrient medium at 2.5×10^5 cells/ml. The cells were aliquoted into black-walled 96-well plates at a density of 50,000 cells/well and incubated overnight in 5% CO2 at 37° C. On the day of the experiment, cells were washed in FLIPR buffer (calcium- and magnesium-free Hank's balanced salt solution, 10 mM HEPES, 2 mM CaCl2, 2.5 mM probenecid; FB). Each well received 100 μl FB and 100 μl of the fluorescent dye Fluo-3 AM [2 μM final conc.]. […]
(§2) Test compounds (dissolved in DMSO at 10 mM and serially diluted with FB) or vehicle were added to each well (25 μl of a 4× solution) and allowed to equilibrate for 20 minutes at room temperature. The plates were then placed in the FLIPR and a baseline fluorescence measurement (excitation at 488 nm and emission at 510-570 nm) was obtained for 10 seconds before a 100 μl/well agonist or vehicle addition. […] Fluorescence was measured for an additional 2 minutes at 1 second intervals after agonist addition. A final addition of ionomycin (5 μM, final concentration) was made to each well of the FLIPR test plate to establish cell viability and maximum fluorescence of dye-bound cytosolic calcium. […]

[2] = target: T2, human P2X2/3 receptor (Homo sapiens, UniProt P56373+Q9UBL9); test: P2X2/3 FLIPR (Fluorometric Imaging Plate Reader) assay; type: cell-based; settings: CHO-K1 cells transfected with human P2X2/3; agonist α,β-meATP 5 μM; read-out: pIC50 for the P2X2/3 receptor (converted)
T2 construct: expressed in transfected cells; host or cells: CHO-K1
T2 sequence (P56373 1-397): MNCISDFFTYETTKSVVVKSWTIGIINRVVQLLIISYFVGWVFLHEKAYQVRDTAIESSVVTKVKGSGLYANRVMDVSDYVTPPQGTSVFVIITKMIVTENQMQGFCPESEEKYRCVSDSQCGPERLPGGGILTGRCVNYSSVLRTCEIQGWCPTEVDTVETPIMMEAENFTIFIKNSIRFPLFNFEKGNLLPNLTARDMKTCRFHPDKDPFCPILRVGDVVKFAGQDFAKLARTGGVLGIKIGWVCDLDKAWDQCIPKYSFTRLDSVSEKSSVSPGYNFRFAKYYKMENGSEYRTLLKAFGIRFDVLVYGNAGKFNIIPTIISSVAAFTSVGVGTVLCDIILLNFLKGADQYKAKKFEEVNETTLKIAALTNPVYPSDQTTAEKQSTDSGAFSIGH
T2 sequence (Q9UBL9 1-471): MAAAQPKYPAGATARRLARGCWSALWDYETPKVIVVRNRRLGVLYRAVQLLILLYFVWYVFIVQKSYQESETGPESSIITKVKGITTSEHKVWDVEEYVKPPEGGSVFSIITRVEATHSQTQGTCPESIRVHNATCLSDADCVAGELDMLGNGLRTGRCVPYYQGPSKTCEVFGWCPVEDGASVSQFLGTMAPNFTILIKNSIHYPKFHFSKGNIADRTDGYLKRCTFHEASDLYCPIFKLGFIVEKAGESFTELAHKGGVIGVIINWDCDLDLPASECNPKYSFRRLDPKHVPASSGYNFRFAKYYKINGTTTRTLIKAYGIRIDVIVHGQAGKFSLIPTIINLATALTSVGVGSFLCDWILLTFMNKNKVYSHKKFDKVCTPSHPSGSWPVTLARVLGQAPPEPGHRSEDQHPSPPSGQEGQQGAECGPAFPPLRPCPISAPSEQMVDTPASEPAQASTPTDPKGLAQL
Method: as §1, §2

- IC50 [1]: ~15.8 nM
- IC50 [2]: ~39.8 nM
Compound: COc1cc(C(C)C)c(Oc2cnc(NC(=O)C(C)C)nc2N)cc1I [Compound 10, N-[4-Amino-5-(5-iodo-2-isopropyl-4-methoxy-phenoxy)-pyrimidin-2-yl]-isobutyramide]
